Test results published in paper PMC12035797, “Peptidomimetics Activating the Proteasome: A New Perspective for Parkinson’s Treatment” (Journal of Medicinal Chemistry, 2025).
Entries after “also recorded” stand apart in the source; their conditions may differ. *1 amine or outer side, *2 acyl side, *3 side chain or, on linkers, in order; H or OH if unused. Where a SMILES comes first, the peptide text is derived from it. [ ]: non-standard residue; d: D form. X2 = N=C(N)NCCC[C@@H](C(=O)[*:2])N(c1ccc([N+](=O)[O-])c2nonc12)[*:1]; Nlys = NCCCCNCC(=O)O

What was measured:
[1] = system: HEK293T cells; experiment: Fluorescence microscopy of cell penetration of NBD-labeled activators; type: cell-based, human; details: 10 μM, 3 h
Description: In order to verify the permeability of the constructs across cell membranes, we synthesized their analogues with an NBD fluorophore attached at the N-terminus. The excitation wavelength for this fluorophore is 467 nm, and the emission wavelength is 539 nm.
HEK293T cells were incubated in DMEM supplemented with 10% FBS and penicillin/streptomycin (100 units/mL/100 μg/mL), at 37 °C with 5% CO2. Cells were seeded on 24-well plates at a density of 3 × 10^4 cells per well and incubated in 0.5 mL of the complete medium for 48 h. Then, the fresh medium containing the modulators labeled with NBD fluorophore was added to each well at a concentration of 10 μM. Half an hour before the end of the incubation, 20 μL of Hoechst 33342 dye was added to each well, and then the plate was placed back in the incubator. After the 3 h incubation, cells were washed thoroughly with PBS, and a phenol red-free culture medium (FluoroBriteTM DMEM, Gibco/Thermo Fisher Scientific, Waltham, MA, USA) was added. Subsequently, the cells were examined using a Zeiss AXIO Observer D1 microscope (Carl Zeiss AG, Oberkochen, Germany) using an Alexa Fluor 488 filter.

[2] = system: endogenous α-synuclein in primary cortical cultures; experiment: Endogenous α-synuclein level in primary cortical cultures (Simple Western Jess); type: cell-based, mouse; details: 2.5 μM, 7 days; statistical significance only for 1g
Description: The effectiveness of the compounds has also been examined by using proteins as substrates. By means of SDS-PAGE electrophoresis, we checked the extent to which model proteins were digested by the 20S proteasome alone and after its stimulation by 10 μM modulators. […] After incubation with the enzyme in the presence of each modulator, less than 40% of synuclein remained. […] All animal experiments were performed following the protocols evaluated and approved by the Laboratory Animal Centre of the University of Helsinki (Ethics Approval License KEK24-013) and in accordance with the European Community Guidelines (Directive 2010/63/EU). […] The viability and number of neuronal cells were calculated automatically in an Automated Cell Counter (Bio-Rad), plated at a density of 1,000,000 cells per well on 6-well plates and cultured in Neurobasal A Medium (Thermo Fisher Scientific (Gibco), #12349015, Waltham, MA, USA) supplemented with GlutaMAX (Thermo Fisher Scientific (Gibco) #A1286001, Waltham, MA, USA), B-27 Supplement (Thermo Fisher Scientific (Gibco), #17504001, Waltham, MA, USA), and 200 ng/mL Primocin (Invitrogen, ant-pm-1, San Diego, CA, USA). […] Protein concentrations in the cell lysates were determined using a bicinchoninic acid (BCA) assay (Sigma-Aldrich, 3B9643-1L-KC, MO, USA) according to the manufacturer’s instructions. […]

[3] = system: hippocampal neurons containing Lewy body-like pS129-αsyn aggregates; experiment: pS129-α-synuclein aggregates in PFF-treated hippocampal neurons; type: cell-based, mouse; details: 7 days after PFFs, 0.5 and 2.5 μM
Excerpt: Encouraged by the results received, we tested the ability of the modulator-CPP constructs to increase α-synuclein degradation in a cell model using primary mouse neuronal cells. The presence of Lewy-like neurites and Lewy-like bodies containing aggregated α-synuclein with phosphorylated serine 129 (pS129-αsyn) is a characteristic feature of the brains of people with Parkinson’s disease. To mimic these aggregations, we introduced a solution of preformed fibrils (PFFs) to the media of neuronal cells, which led to the induction of α-synuclein phosphorylation and its aggregation in neurons isolated from mouse embryos. PFFs are purified, prion-like fibrils of α-synuclein that are produced by expressing a recombinant monomeric protein in bacteria. Seven days after PFFs are introduced to the cells, large aggregates are visible in the cell soma, often next to the cell nucleus. We added the PFF solution to the hippocampal cells, and after an hour of incubation, we introduced solutions of the activator. After 7 days, we immunostained neuronal cells using a monoclonal antibody against the NeuN protein, which is commonly used in neuronal differentiation studies to assess their functional status. Additionally, we stained the nuclei of all incubated cells with DAPI. […] It is noteworthy that the number of cells in samples with activators was slightly higher (Figure 5), which may indicate neuroprotective properties. […] The main tool for monitoring this process was an antibody against pS129-αsyn. […] The fluorescent microscopy images (Figure 5) show the difference between the amounts of aggregated protein in the control sample and in the samples containing activators at different concentrations.
Cells were isolated from pregnant mouse embryos at E16.0 and plated on precoated with poly-L-lysine wells of 96-well plates (PerkinElmer/Revvity Inc., Waltham, MA, USA) at 25,000 cells/well. The final medium volume was 150 μL/well. Cells were incubated at 37 °C, 5% CO2. […]

[4] = PAMPA, blood–brain barrier mimic; type: in vitro ADME; details: 500 μM, 37 °C, 22 h
Excerpt: In neurodegenerative diseases, proteins prone to aggregation accumulate in the neuronal cells. Therefore, a necessary feature of potential drugs is not only permeability across the cell membrane but also the ability to cross the blood-brain barrier (BBB). To preliminarily investigate this feature, we performed parallel artificial membrane permeation assays (PAMPA) including as positive controls propranolol and Tat47-57, known for their ability to penetrate the blood-brain barrier. Dopamine hydrobromide was included as a negative control. For comparison, we also tested compound 1a, which is devoid of a CPP sequence. […] The PAMPA was performed as previously described.[21] Briefly, a 2% solution of porcine brain lipid membrane (PBL; Avanti Polar Lipids Inc., Alabaster, AL, USA) in anhydrous dodecane was used as a mimic of the blood-brain barrier. Propranolol hydrochloride (Merck, Darmstadt, Germany) and Tat47-57 (synthesized in-house) served as positive controls, while dopamine hydrobromide (Merck, Darmstadt, Germany) was used as a negative control. Stock solutions of the tested compounds and controls were prepared at a concentration of 10 mM in deionized water and then diluted to 500 μM using 0.1 M PBS containing 5% DMSO. The donor-acceptor plate assembly was incubated at 37 °C while being shaken at 250 rpm for 22 h. Absorbance at 290 nm was measured for propranolol using an Infinite […] plate reader (Infinite […] plate reader, Tecan). For the other samples, fluorescence measurements were performed after the compounds were reacted with 0.02% fluorescamine. The rate of passive diffusion was calculated as the linear velocity of permeation (Pe). The data represent an average of three independent biological replicates.

Structure (SMILES) | penetration into cells, NBD fluorescence [1] | effect on endogenous α-synuclein in primary cortical cultures [2] | effect on hippocampal cells containing α-synuclein aggregates [3] | permeability across artificial BBB membrane, PAMPA [4]
C[C@@H](O)[C@H](NC(=O)[C@H](Cc1ccccc1)NC(=O)[C@H](Cc1ccc(O)cc1)NC(=O)CN(CCCCN)C(=O)[C@H](CCCNC(=N)N)NC(=O)[C@H](CCCNC(=N)N)NC(=O)[C@H](CCCNC(=N)N)NC(=O)[C@H](CCC(N)=O)NC(=O)[C@H](CCCNC(=N)N)NC(=O)[C@H](CCCNC(=N)N)NC(=O)[C@H](CCCCN)NC(=O)[C@H](CCCCN)NC(=O)[C@H](CCCNC(=N)N)Nc1ccc([N+](=O)[O-])c2nonc12)C(=O)NCC(=O)N[C@@H](CO)C(=O)N[C@@H](CCCCN)C(=O)N[C@@H](CC(=O)O)C(=O)N[C@@H](Cc1c[nH]c2ccccc12)C(=O)N[C@@H](CCCNC(=N)N)C(=O)N[C@@H](CO)C(=O)N[C@@H](Cc1ccc(O)cc1)C(=O)N[C@@H](Cc1ccc(O)cc1)C(=O)N[C@@H](CO)C(=O)O [1f_NBD] (H-[X2]KKRRQRRR[Nlys]YFTGSKDWRSYYS-OH; C-terminus assumed) | fluorescence from the attached NBD tag is visible inside HEK293T cells | – | – | –
C[C@@H](O)[C@H](NC(=O)[C@H](Cc1ccccc1)NC(=O)[C@H](Cc1ccc(O)cc1)NC(=O)CN(CCCCN)C(=O)[C@H](CCCNC(=N)N)NC(=O)[C@H](CCCNC(=N)N)NC(=O)[C@H](CCCNC(=N)N)NC(=O)[C@H](CCNC(=N)N)NC(=O)[C@H](CCCNC(=N)N)NC(=O)[C@@H](N)CCCNC(=N)N)C(=O)NCC(=O)N[C@@H](CO)C(=O)N[C@@H](CCCCN)C(=O)N[C@@H](CC(=O)O)C(=O)N[C@@H](Cc1c[nH]c2ccccc12)C(=O)N[C@@H](CCCNC(=N)N)C(=O)N[C@@H](CO)C(=O)N[C@@H](Cc1ccc(O)cc1)C(=O)N[C@@H](Cc1ccc(O)cc1)C(=O)N[C@@H](CO)C(=O)O [1g] | – | able to reduce the amount of endogenous α-synuclein | effectively reduced the number of hippocampal cells containing α-synuclein; also recorded: visible dependence of the degradation ability on concentration | had the ability to penetrate the artificial membrane mimicking the BBB
C[C@@H](O)[C@H](NC(=O)[C@H](Cc1ccccc1)NC(=O)[C@H](Cc1ccc(O)cc1)NC(=O)CN(CCCCN)C(=O)[C@H](CCCNC(=N)N)NC(=O)[C@H](CCCNC(=N)N)NC(=O)[C@H](CCCNC(=N)N)NC(=O)[C@H](CCCNC(=N)N)NC(=O)[C@H](CCCNC(=N)N)NC(=O)[C@H](CCCNC(=N)N)Nc1ccc([N+](=O)[O-])c2nonc12)C(=O)NCC(=O)N[C@@H](CO)C(=O)N[C@@H](CCCCN)C(=O)N[C@@H](CC(=O)O)C(=O)N[C@@H](Cc1c[nH]c2ccccc12)C(=O)N[C@@H](CCCNC(=N)N)C(=O)N[C@@H](CO)C(=O)N[C@@H](Cc1ccc(O)cc1)C(=O)N[C@@H](Cc1ccc(O)cc1)C(=O)N[C@@H](CO)C(=O)O [1g_NBD] (H-[X2]RRRRR[Nlys]YFTGSKDWRSYYS-OH; C-terminus assumed) | fluorescence from the attached NBD tag is visible inside HEK293T cells | – | – | –
